Results: patent publication US20260224496A1, “HIGHLY POROUS GAS-BLOWN HYDROGELS FOR DIRECT CELL ENCAPSULATION WITH HIGH CELL VIABILITY” (Syracuse University, priority 2023, published 2026)

Tests used:
[1] = test system: 3T3 mouse fibroblasts; assay: IC50 values of foaming components, resazurin assay (Alamar Blue); format: cell-based; conditions: 20-minute exposure
Protocol: Cells were cultured in DMEM with 10% fetal bovine serum (FBS) and 1% penicillin-streptomycin (pen-strep) at 37° C. with 5% CO2. Cells were trypsinized and seeded at a density of 5,000 cells per well in a 96-well plate. […] After a 20-minute exposure, solutions were removed, and cell viability was measured compared to an untreated control using a resazurin assay (Alamar Blue) read by a plate reader. Cell viability was calculated as: […]
The blank was a well with media only and no cells.

[2] = in vitro
Protocol: (§1) Using IC50 values as a concentration ceiling, the cytocompatibility of citric acid, NaHCO3, and Irgacure 2959 was measured with adipose-derived MSCs at concentrations of 0.25, 1, and 0.2% (w/v) in DMEM, respectively. MSCs were seeded in 24 well plates at 2,500 cells per well. […] After incubation, cells were treated with a resazurin assay for 2 hours for cytocompatibility measurements or with Live/Dead assay stains and imaging for morphology analysis.

[3] = test system: adipose-derived MSCs; assay: in vitro
Protocol: as §1

Structure (SMILES): O=C(O)CC(O)(CC(=O)O)C(=O)O [Citric acid, citric acid]
- IC50 [1]: 0.23 wt %
- viability at 1 h, 0.25 % (w/v) [2]: 51%
- viability at 24 h, 0.25 % (w/v) [2]: 21%

Structure (SMILES): CC(C)(O)C(=O)c1ccc(OCCO)cc1 [Irgacure 2959]
- MSC viability after 24-hour recovery [3]: 99%
- MSC viability after 1 hour of exposure [3]: 99%

Structure (SMILES): O=C([O-])O.[Na+] [NaHCO3, sodium bicarbonate]
- MSC viability after 24-hour recovery ([3]; citric acid 0.25%, Irgacure 2959 0.2%, NaHCO3 1% (w/v) in DMEM, 24-hour recovery): 95%
- MSC viability after 1 hour of exposure ([3]; citric acid 0.25%, Irgacure 2959 0.2%, NaHCO3 1% (w/v) in DMEM, 1 hour exposure): 98%
